Where a name gives a salt, the structure may show the parent alone.
Molecular target: T1, dopamine D3 receptor (Homo sapiens, UniProt P35462)
T1 construct: expressed in transfected cells; host or cells: CHO cells (crude cell membranes)
Experiment: Binding experiments on cloned dopamine receptors: displacement of [125I]-Iodosulpride
Conditions: cloned human D3 receptor expressed in CHO cells, [125I]-Iodosulpride displacement; pKi accurate to about ±0.2-0.3
Experimental: Binding Experiments on Cloned Dopamine (e.g. D2, D3 and D4) Receptors
Cultures were grown as monolayers or in suspension in standard cell culture media. Cells were recovered by scraping (from monolayers) or by centrifugation (from suspension cultures), and were washed two or three times by suspension in phosphate buffered saline followed by collection by centrifugation. Cell pellets were stored frozen at −80° C. Crude cell membranes were prepared by homogenisation followed by high-speed centrifugation, and characterisation of cloned receptors achieved by radioligand binding.
Preparation of Cho Cell Membranes: Cell Pellets were Gently Thawed at Room temperature, and resuspended in about 20 volumes of ice-cold Extraction buffer; 5 mM EDTA, 50 mM Trizma pre-set crystals (pH7.4@37° C.), 1 mM MgCl2, 5 mM KCl and 120 mM NaCl. The suspension was homogenised using an Ultra-Turrax at full speed for 15 seconds. The homogenate was centrifuged at 18,000 r.p.m for 15 min at 4° C. in a Sorvall RC5C centrifuge. Supernatant was discarded, and homogenate re-suspended in extraction buffer then centrifugation was repeated. The final pellet was resuspended in 50 mM Trizma pre-set crystals (pH 7.4 @ 37° C.) and stored in 1 ml aliquot tubes at −80° C. (D2=3.0E+08 cells, D3=7.0E+07 cells and D4=1.0E+08 cells).
The total volume is 0.2 ml and incubated in a water bath at 37° C. for 40 minutes. Following incubation, samples were filtered onto GF/B Unifilters using a Can berra Packard Filtermate, and washed four times with ice-cold 50 mM Trizma pre-set crystals (pH 7.4 @ 37° C.). The radioactivity on the filters was measured using a Canberra Packard Topcount Scintillation counter. […] For competition curves, 10 serial log concentrations of competing cold drug were used (Dilution range: 10 μM-10 pM). Competition curves were analysed using Inflexion, an iterative curve fitting programme in Excel. Results were expressed as pKi values where pKi=−log 10 [Ki].

T1 sequence (P35462 whole entry): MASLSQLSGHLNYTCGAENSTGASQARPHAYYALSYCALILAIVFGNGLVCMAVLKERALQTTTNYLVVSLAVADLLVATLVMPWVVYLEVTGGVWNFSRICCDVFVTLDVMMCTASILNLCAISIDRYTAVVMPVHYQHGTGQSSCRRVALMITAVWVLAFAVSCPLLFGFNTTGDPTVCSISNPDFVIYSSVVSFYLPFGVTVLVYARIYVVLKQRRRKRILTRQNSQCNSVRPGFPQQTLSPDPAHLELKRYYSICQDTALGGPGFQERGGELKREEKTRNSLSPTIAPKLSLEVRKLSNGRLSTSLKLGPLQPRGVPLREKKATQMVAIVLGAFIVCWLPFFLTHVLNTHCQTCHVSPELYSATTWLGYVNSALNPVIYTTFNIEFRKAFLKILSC

Ki [nM]	SMILES
0.316 to 10	CS(=O)(=O)c1ccc2c(c1)CCN(CCCSc1nc(-c3ccccc3)c(-c3ccccc3)[nH]1)CC2 [Example 5, 3-{3-[(4,5-diphenyl-1H-imidazol-2-yl)thio]propyl}-7-(methylsulfonyl)-2,3,4,5-tetrahydro-1H-3-benzazepine]
0.316 to 10	Cc1cc(-c2ccc3c(c2)CCN(CCCSc2nnc(-c4ccc5ncccc5c4)n2C)CC3)on1 [Example 126, 7-(3-methyl-5-isoxazolyl)-3-(3-{[4-methyl-5-(6-quinolinyl)-4H-1,2,4-triazol-3-yl]thio}propyl)-2,3,4,5-tetrahydro-1H-3-benzazepine]
0.316 to 10	CCS(=O)(=O)c1ccc2c(c1)CCN(CCCSc1nnc(-c3cc4ccccc4[nH]3)n1C)CC2 [Example 93, 7-(ethylsulfonyl)-3-(3-{[5-(1H-indol-2-yl)-4-methyl-4H-1,2,4-triazol-3-yl]thio}propyl)-2,3,4,5-tetrahydro-1H-3-benzazepine]
0.316 to 10	Cn1c(SCCCN2CCc3ccc(S(C)(=O)=O)cc3CC2)nnc1-c1ccc2c(ccn2C)c1 [Example 74, 3-(3-{[4-methyl-5-(1-methyl-1H-indol-5-yl)-4H-1,2,4-triazol-3-yl]thio}propyl)-7-(methylsulfonyl)-2,3,4,5-tetrahydro-1H-3-benzazepine]
0.316 to 10	CCS(=O)(=O)c1ccc2c(c1)CCN(CCCSc1nnc(-c3cccc4ccoc34)n1C)CC2 [Example 100, 3-(3-{[5-(1-benzofuran-7-yl)-4-methyl-4H-1,2,4-triazol-3-yl]thio}propyl)-7-(ethylsulfonyl)-2,3,4,5-tetrahydro-1H-3-benzazepine]
0.316 to 10	CCS(=O)(=O)c1ccc2c(c1)CCN(CCCSc1nnc(-c3cccc4occc34)n1C)CC2 [Example 96, 3-(3-{[5-(1-benzofuran-4-yl)-4-methyl-4H-1,2,4-triazol-3-yl]thio}propyl)-7-(ethylsulfonyl)-2,3,4,5-tetrahydro-1H-3-benzazepine]
0.316 to 10	Cn1c(SCCCN2CCc3ccc(S(=O)(=O)c4ccccc4)cc3CC2)nnc1-c1ccc(F)cc1F [Example 67, 3-(3-{[5-(2,4-difluorophenyl)-4-methyl-4H-1,2,4-triazol-3-yl]thio}propyl)-7-(phenylsulfonyl)-2,3,4,5-tetrahydro-1H-3-benzazepine]
0.316 to 10	Cc1cc(-c2ccc3c(c2)CCN(CCCSc2nnc(-c4ccc(F)cc4F)n2C)CC3)no1 [Example 131, 3-(3-{[5-(2,4-difluorophenyl)-4-methyl-4H-1,2,4-triazol-3-yl]thio}propyl)-7-(5-methyl-3-isoxazolyl)-2,3,4,5-tetrahydro-1H-3-benzazepine]
0.316 to 10	Cc1cc(-c2ccc3c(c2)CCN(CCCSc2nnc(-c4ccc(F)c5ncccc45)n2C)CC3)no1 [Example 135, 3-(3-{[5-(8-fluoro-5-quinolinyl)-4-methyl-4H-1,2,4-triazol-3-yl]thio}propyl)-7-(5-methyl-3-isoxazolyl)-2,3,4,5-tetrahydro-1H-3-benzazepine]
0.316 to 10	Cn1c(SCCCN2CCc3ccc(OS(C)(=O)=O)cc3CC2)nnc1-c1ccc2ncccc2c1 [Example 13, 3-(3-{[4-methyl-5-(6-quinolinyl)-4H-1,2,4-triazol-3-yl]thio}propyl)-2,3,4,5-tetrahydro-1H-3-benzazepin-7-yl methanesulfonate]
0.316 to 10	Cc1ccc2cc(-c3nnc(CCCCN4CCc5ccc(-c6cc(C)on6)cc5CC4)n3C)ccc2n1 [Example 173, 7-(5-Methyl-3-isoxazolyl)-3-{4-[4-methyl-5-(2-methyl-6-quinolinyl)-4H-1,2,4-triazol-3-yl]butyl}-2,3,4,5-tetrahydro-1H-3-benzazepine hydrochloride]
0.316 to 10	Cn1c(SCCCN2CCc3ccc(S(=O)(=O)N4CCOCC4)cc3CC2)nnc1-c1ccc2ncccc2c1 [Example 51, 3-(3-{[4-methyl-5-(6-quinolinyl)-4H-1,2,4-triazol-3-yl]thio}propyl)-7-(4-morpholinylsulfonyl)-2,3,4,5-tetrahydro-1H-3-benzazepine]
0.316 to 10	Cc1cnc(-c2ccc3c(c2)CCN(CCCSc2nnc(-c4ccc5ncccc5c4)n2C)CC3)o1 [Example 61, 7-(5-methyl-1,3-oxazol-2-yl)-3-(3-{[4-methyl-5-(6-quinolinyl)-4H-1,2,4-triazol-3-yl]thio}propyl)-2,3,4,5-tetrahydro-1H-3-benzazepine]
0.316 to 10	Cn1c(SCCCN2CCc3ccc(OS(C)(=O)=O)cc3CC2)nnc1-c1ccc(F)cc1 [Example 14, 3-(3-{[5-(4-fluorophenyl)-4-methyl-4H-1,2,4-triazol-3-yl]thio}propyl)-2,3,4,5-tetrahydro-1H-3-benzazepin-7-yl methanesulfonate]
0.316 to 10	CCS(=O)(=O)c1ccc2c(c1)CCN(CCCSc1nnc(-c3cc4ccccc4o3)n1C)CC2 [Example 95, 3-(3-{[5-(1-benzofuran-2-yl)-4-methyl-4H-1,2,4-triazol-3-yl]thio}propyl)-7-(ethylsulfonyl)-2,3,4,5-tetrahydro-1H-3-benzazepine]
0.316 to 10	CCS(=O)(=O)c1ccc2c(c1)CCN(CCCSc1nnc(-c3cc4ccccc4s3)n1C)CC2 [Example 91, 3-(3-{[5-(1-benzothien-2-yl)-4-methyl-4H-1,2,4-triazol-3-yl]thio}propyl)-7-(ethylsulfonyl)-2,3,4,5-tetrahydro-1H-3-benzazepine]
0.316 to 10	CCS(=O)(=O)c1ccc2c(c1)CCN(CCCSc1nnc(-c3cc4ccccc4n3C)n1C)CC2 [Example 99, 7-(ethylsulfonyl)-3-(3-{[4-methyl-5-(1-methyl-1H-indol-2-yl)-4H-1,2,4-triazol-3-yl]thio}propyl)-2,3,4,5-tetrahydro-1H-3-benzazepine]
0.316 to 10	Cn1c(SCCCN2CCc3ccc(OS(C)(=O)=O)cc3CC2)nnc1-c1cccs1 [Example 8, 3-(3-{[4-methyl-5-(2-thienyl)-4H-1,2,4-triazol-3-yl]thio}propyl)-2,3,4,5-tetrahydro-1H-3-benzazepin-7-yl methanesulfonate]
0.316 to 10	CCn1c(SCCCN2CCc3ccc(-c4ncc(C)o4)cc3CC2)nnc1-c1ccc2ncccc2c1 [Example 169, 3-(3-{[4-ethyl-5-(6-quinolinyl)-4H-1,2,4-triazol-3-yl]thio}propyl)-7-(5-methyl-1,3-oxazol-2-yl)-2,3,4,5-tetrahydro-1H-3-benzazepine]
0.316 to 10	Cn1c(SCCCN2CCc3ccc(OS(C)(=O)=O)cc3CC2)nnc1-c1ccccc1 [Example 1, 3-{3-[(4-methyl-5-phenyl-4H-1,2,4-triazol-3-yl)thio]propyl}-2,3,4,5-tetrahydro-1H-3-benzazepin-7-yl methanesulfonate]
0.316 to 10	CS(=O)(=O)Oc1ccc2c(c1)CCN(CCCSc1nc(-c3ccccc3)c(-c3ccccc3)[nH]1)CC2 [Example 22, 3-{3-[(4,5-diphenyl-1H-imidazol-2-yl)thio]propyl}-2,3,4,5-tetrahydro-1H-3-benzazepin-7-yl methanesulfonate]
0.316 to 10	Cc1ccc2cc(-c3nnc(SCCCN4CCc5ccc(-c6ncc(C)o6)cc5CC4)n3C)ccc2n1 [Example 168, 3-(3-{[4-methyl-5-(2-methyl-6-quinolinyl)-4H-1,2,4-triazol-3-yl]thio}propyl)-7-(5-methyl-1,3-oxazol-2-yl)-2,3,4,5-tetrahydro-1H-3-benzazepine]
